Data from patent US11267826B2, “Penicillin-binding protein inhibitors” (priority 2017, dated 2022).

Experiments:
[1] = test system: E. coli DH5a harboring IMP-18; experiment: Broth microdilution MIC, engineered E. coli expressing IMP-18; type: cell-based; settings: Escherichia coli, read-out: MIC, β-lactamase IMP
Description: (§1) To determine the ability of test compounds to potentiate the inhibition of the growth of bacterial strains, classic cell based broth microdilution MIC assays were employed. MIC assays are performed according to CLSI methods except where otherwise noted (CLSI, 2011 and CLSI, 2009). The reference strain S. aureus ATCC 29213 and the hyper-permeable E. coli 901C were used to determine the ability of the PBP compounds to inhibit bacterial growth. Briefly, cryo-preserved bacterial cultures of clinical strains are streaked for isolation on appropriate agar medium, in this case Mueller Hinton II agar. Following incubation to allow formation of colonies these plates are sealed with parafilm and stored refrigerated for up to two weeks. For preparation of assay inocula and to ensure low variability, at least 5 colonies are picked from the agar plates with an inoculating loop and aseptically transferred to a culture tube containing 3 mL of Mueller-Hinton Broth (supplemented with divalent cations to required levels based on Manufacturers' certification). The broth culture is grown for 3-5 hours at 37° C. with shaking at 200 rpm. Meanwhile, 2-fold serial dilutions of test compounds are conducted in a 96 well plate with a final volume of 75 μL per well at 2-fold the final desired concentration. After the dilution plates are set up the growing cultures are then diluted in a cuvette containing MH II broth and the optical density is measured at 600 nm. Inocula are diluted such that 75 μL of this culture in Mueller-Hinton Broth results in a starting bacterial concentration of 5×10^5 CFU/mL when added to the dilution plates. The plates are incubated 16-20 hours at 37° C. The MIC is read visually as the lowest concentration well with no bacterial growth.
(§2) To determine if test compounds were affected by various known β-lactamases, the inhibition of the growth of engineered strains of Escherichia coli harboring select single β-lactamases were tested. […]

S. aureus ATCC 29213 = experiment: Broth microdilution MIC assay, S. aureus; type: cell-based; settings: Staphylococcus aureus, ATCC29213; broth microdilution, 16-20 hours at 37° C.; read-out: S. aureus 29213 MIC
Method in brief: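 CLSI broth microdilution in cation-supplemented Mueller-Hinton broth; 2-fold serial compound dilutions inoculated at 5×10^5 CFU/mL from 3-5 h log-phase cultures. Plates incubated 16-20 hours at 37° C. MIC read visually as lowest concentration with no bacterial growth.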

E. coli K12 PBP1b = target: T1, E. coli K12 PBP1b (Escherichia coli, UniProt P02919); experiment: Competition binding assay using Bodipy-FL boronic acid probe (Example 125); settings: Bodipy-FL boronic acid probe (Example 125) 30 μM, 10 minutes pre-incubation, 10 minutes reaction
T1 construct: endogenous in cells; host or cells: Escherichia coli K12, membrane protein fraction
Description: Penicillin binding proteins were isolated from Escherichia coli K12 by growth of Escherichia coli K12 from a single colony in 4 L of Luria-Bertani (LB) broth at 35° C. and 250 rpm to an OD600 nm of 0.5. The cells were harvested by centrifugation at 7,000×g for 10 min. at 4° C. Cells were resuspended and washed in 50 mM potassium phosphate pH 7.5. The cells were re-suspended in sonication buffer [50 mM Tris-HCl pH 7.5, 1 mM MgCl2, 1 mM beta-mercaptoethanol, and 5 μg/mL DNAse I] and sonicated by 4 passes of 30 seconds at 45 W on ice. The sample was clarified by centrifugation at 3,000×g to remove cell debris and unbroken cells and supernatant containing the membrane proteins was retained. The membrane proteins including the PBPs were further purified from soluble constituents by an ultracentrifugation step at 100,000×g for 30 min. at 4° C. The membrane proteins are washed twice with 10 mM sodium phosphate pH 7, resuspended in a volume of 5 mL, quantitated by BCA assay, adjusted to […] and frozen at −80° C. until use.
The adapted Bocillin FL competition binding method described herein incorporates a 15 min. pre-incubation of test compound with isolated PBPs to attempt to balance the difference in mechanism of inhibition between beta-lactams (largely irreversible covalent bond to active site Serine) and the boron-containing PBP inhibitor test compounds (reversible covalent bond to active site Serine). Briefly, 50 μL reactions consisted of 100 μg's of total membrane protein extracts containing PBPs incubated with a dilution series of test compound ranging from 0.005 μg/mL to 2,480 μg/mL in 10 mM sodium phosphate pH7 containing 350 mM NaCl. Thirty minute reactions at 35° C. were initiated by addition of […] Bocillin FL, quenched by addition of SDS-PAGE loading buffer containing sodium dodecyl sulfate (SDS) and heated for 15 minutes at 95° C. to denature proteins in preparation for SDS-polyacrylamide gel electrophoresis. The Bocillin FL labeled PBPs are then separated by SDS-PAGE in Novex NuPage 10% Bis-Tris pre-cast gels (Invitrogen). The SDS-PAGE gel, post-electrophoresis, is then washed in water to remove excess SDS for 10 minutes at room temperature and placed on the scanning bed of a GE Healthcare/Amersham Biosciences Storm 860 fluorescence scanner. The excitation wavelength is in the blue spectrum at 450 nm and the emission at 520 nm is captured by the instrument. Effective PBP inhibitors are detected by a reduction in Bocillin FL labeling of the particular PBP over the dose range of test compound in a dose-responsive manner. High molecular weight PBP 1a/1b are not resolved by these gels, thus we report HMW PBP binding results in μg/mL for PBPs 1a/1b combined as well as for PBP2 and PBP3.
To determine the ability of boronic acid-based test PBP inhibitors to bind Penicillin Binding Proteins (PBPs), a competition binding assay using a Bodipy-FL-labeled boronic acid PBP inhibitor (Example 125) was adapted from the classical method used to assess PBP potency of beta-lactams using Bocillin-FL (fluorescently-labeled penicillin V). The method is identical to that described in Example I for the Bocillin-FL competition binding assay with the following exceptions, the Bodipy-FL boronic acid probe (Example 125) is used at a final concentration of 30 μM, pre-incubation time of test compound with PBP enzymes is 10 minutes and reaction time is set for 10 minutes and reactions are prepared for SDS-PAGE analysis by simply adding SDS-containing loading buffer. Representative results are shown in Table 5, where A represents a potency of >1000 μg/mL, B represents a potency between 64 and 1000 μg/mL inclusive, and C represents a potency of <64 μg/mL. NT=Not Tested.

[2] = test system: E. coli DH5a harboring VIM-2; experiment: Broth microdilution MIC, engineered E. coli expressing VIM-2; type: cell-based; settings: Escherichia coli, read-out: MIC, β-lactamase VIM
Description: as §1, §2

E. coli PBP3 = target: T2, E. coli PBP3 (Escherichia coli, UniProt P0AD68); experiment: Bocillin FL competition binding assay, PBP3; design: species or system Escherichia coli K12; settings: 15 min pre-incubation
T2 construct: 100 μg's of total membrane protein extracts containing PBPs; endogenous in cells; host or cells: Escherichia coli K12, membrane protein fraction
Method in brief: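 E. coli K12 membrane extracts (100 µg protein) pre-incubated 15 min with compound (0.005–2,480 µg/mL) in pH 7 phosphate/350 mM NaCl, then labelled with Bocillin FL 30 min at 35°C; SDS-PAGE fluorescence (ex 450/em 520 nm), μg/mL reported. PBP1a/1b unresolved, reported combined.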

T1 sequence (P02919 whole entry): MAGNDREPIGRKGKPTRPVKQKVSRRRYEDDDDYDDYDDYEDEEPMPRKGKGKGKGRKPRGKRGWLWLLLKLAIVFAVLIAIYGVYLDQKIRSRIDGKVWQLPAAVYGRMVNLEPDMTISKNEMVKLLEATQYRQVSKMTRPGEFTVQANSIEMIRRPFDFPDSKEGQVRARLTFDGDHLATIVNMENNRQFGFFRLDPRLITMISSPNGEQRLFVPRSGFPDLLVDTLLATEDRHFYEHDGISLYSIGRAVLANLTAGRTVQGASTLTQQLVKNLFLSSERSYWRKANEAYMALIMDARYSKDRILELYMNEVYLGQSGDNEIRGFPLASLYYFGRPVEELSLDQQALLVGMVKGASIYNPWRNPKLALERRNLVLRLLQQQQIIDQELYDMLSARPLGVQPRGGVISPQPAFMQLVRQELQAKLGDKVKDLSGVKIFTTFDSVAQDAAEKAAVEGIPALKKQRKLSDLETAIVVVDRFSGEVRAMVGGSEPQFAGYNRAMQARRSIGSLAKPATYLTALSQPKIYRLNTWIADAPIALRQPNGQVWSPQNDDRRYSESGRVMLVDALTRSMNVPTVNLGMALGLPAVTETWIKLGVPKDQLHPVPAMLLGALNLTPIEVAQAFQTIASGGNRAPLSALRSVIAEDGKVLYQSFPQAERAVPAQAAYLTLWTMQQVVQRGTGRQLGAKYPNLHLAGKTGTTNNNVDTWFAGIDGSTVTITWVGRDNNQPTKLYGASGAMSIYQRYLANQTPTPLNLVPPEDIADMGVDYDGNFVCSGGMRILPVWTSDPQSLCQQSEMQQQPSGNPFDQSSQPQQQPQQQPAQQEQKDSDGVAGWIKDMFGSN
T2 sequence (P0AD68 1-577): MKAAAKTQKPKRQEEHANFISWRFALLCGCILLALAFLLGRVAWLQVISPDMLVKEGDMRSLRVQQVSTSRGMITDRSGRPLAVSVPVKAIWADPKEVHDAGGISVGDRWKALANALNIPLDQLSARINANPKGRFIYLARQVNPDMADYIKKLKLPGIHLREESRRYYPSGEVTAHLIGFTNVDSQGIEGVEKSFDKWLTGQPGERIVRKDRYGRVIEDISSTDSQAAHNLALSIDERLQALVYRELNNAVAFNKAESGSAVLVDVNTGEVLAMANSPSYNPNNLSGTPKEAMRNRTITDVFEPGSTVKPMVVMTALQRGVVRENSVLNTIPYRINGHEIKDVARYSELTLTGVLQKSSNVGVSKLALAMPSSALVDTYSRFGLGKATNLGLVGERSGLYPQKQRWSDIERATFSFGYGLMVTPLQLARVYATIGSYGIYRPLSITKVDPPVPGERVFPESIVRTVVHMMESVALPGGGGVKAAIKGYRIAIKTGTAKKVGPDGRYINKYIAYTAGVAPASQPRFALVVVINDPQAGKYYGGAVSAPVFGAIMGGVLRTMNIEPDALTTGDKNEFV

Nc1nc(/C(=N/O)C(=O)N[C@H]2Cc3cccc(C(=O)O)c3OB2O)cs1 [Example 6, (R,Z)-3-(2-(2-aminothiazol-4-yl)-2-(hydroxyimino)acetamido)-2-hydroxy-3,4-dihydro-2H-benzo[e][1,2]oxaborinine-8-carboxylic Acid]
MIC [1]: 16 µg/mL
MIC (S. aureus ATCC 29213): < 64 µg/mL
E. coli K12 PBP1b Potency (E. coli K12 PBP1b): C (C represents a potency of <64 μg/mL)
MIC [2]: 16 µg/mL
E. coli PBP3 Potency (E. coli PBP3): B (B represents a potency between 64 and 1000 μg/mL inclusive)
